Source: patent publication US6680282B2 (priority 1997, dated 2004)

Assays:
Pyricularia oryzae [1] = assay: whole plant or invertebrate; assay type: in vivo; details: 100 ppm spray, rice seedling (Jikkoku) 4-leaf stage, lesion number on fourth leaf 6 days after inoculation
Pyricularia oryzae [2] = assay type: cell-based; details: 100 ppm in potato dextrose agar, 28 or 22° C., 48 hours
Cochlioborus miyabeanus = assay type: cell-based; details: 100 ppm in potato dextrose agar, 28 or 22° C., 48 hours
[3] = test system: Alternaria alternata Japanese pear pathotype; assay type: cell-based; details: 100 ppm in potato dextrose agar, 28 or 22° C., 48 hours
Method: (§1) Test for Antifungal Activity
(§2) A test compound dissolved in acetone was mixed in a potato dextrose agar medium (manufactured by Nissui Seiyaku K. K.) so that the final concentration of the test compound was 100 ppm and then poured in a Petri dish. To this Perti dish after the agar was completely solidified, a cylindrical section prepared by punching a mycelial colony of each of plant pathogenic fungi cultured in another Petri dish by means of a cork borer was inoculated and cultured at 28 or 22° C. 48 Hours after the inoculation, the diameter of the mycelial colony was determined. Control percentages were calculated by comparing the diameter of the mycelial colony in a treated area with that in an untreated area. And, antifungal effect was ranked according to the following criterion.
(§3) A; control percentage ≧80%
(§4) B; control percentage 50 to 79%
(§5) C; control percentage <50%

Botrytis cinerea = assay type: cell-based; details: 100 ppm in potato dextrose agar, 28 or 22° C., 48 hours
Method: as §1, §2, §3, §4, §5

[4] = test system: Colletotrichum atramentarium; assay type: cell-based; details: 100 ppm in potato dextrose agar, 28 or 22° C., 48 hours
Method: as §1, §2, §3, §4, §5

[5] = test system: Fusarium oxysporum f. sp. lycopersici; assay type: cell-based; details: 100 ppm in potato dextrose agar, 28 or 22° C., 48 hours
Method: as §1, §2, §3, §4, §5

Gibberella fujikuroi = assay type: cell-based; details: 100 ppm in potato dextrose agar, 28 or 22° C., 48 hours
Method: as §1, §2, §3, §4, §5

Glomerella cingalata = assay type: cell-based; details: 100 ppm in potato dextrose agar, 28 or 22° C., 48 hours
Method: as §1, §2, §3, §4, §5

Rhizoctonia solani = assay type: cell-based; details: 100 ppm in potato dextrose agar, 28 or 22° C., 48 hours
Method: as §1, §2, §3, §4, §5

Sclerotinia minor = assay type: cell-based; details: 100 ppm in potato dextrose agar, 28 or 22° C., 48 hours
Method: as §1, §2, §3, §4, §5

Verticillium aibo-atrum = assay type: cell-based; details: 100 ppm in potato dextrose agar, 28 or 22° C., 48 hours
Method: as §1, §2, §3, §4, §5

Sphaerotheca fuliginea = assay: Test for control effect against powdery mildew of Cucurbitaceae (spray on cucumber seedlings); assay type: in vivo; details: 200 ppm spray, cucumber first foliage leaf, 10 days after inoculation
Description: Test for Control Effect Against Powdery Mildew of Cucurbitaceae
A spray liquid comprising a test compound whose concentration was adjusted to be 200 ppm by dilution with water was sprayed to a cucumber grown in a vinyl pot of 3 cm in diameter when its first foliage leaf was developed. The air-dried cucumber seedling was inoculated with a conidium suspension of Sphaerotheca fuliginea. Thereafter, the cucumber seedling was transferred in an air-conditioned greenhouse. 10 Days after the inoculation, the disease severity was observed. The protective value was calculated by comparing the disease severity in a treated area with that in an untreated area. Then, control effect was ranked according to the following criterion.
B; protective value 50 to 79%

Structure (SMILES) | rank (control effect, protective value from lesion number) (Pyricularia oryzae [1]) | rank (antifungal effect, control percentage of mycelial colony diameter) (Pyricularia oryzae [2]) | rank (antifungal effect, control percentage of mycelial colony diameter) (Cochlioborus miyabeanus) | rank (antifungal effect, control percentage of mycelial colony diameter) [3] | rank (antifungal effect, control percentage of mycelial colony diameter) (Botrytis cinerea) | rank (antifungal effect, control percentage of mycelial colony diameter) [4] | rank (antifungal effect, control percentage of mycelial colony diameter) [5] | rank (antifungal effect, control percentage of mycelial colony diameter) (Gibberella fujikuroi) | rank (antifungal effect, control percentage of mycelial colony diameter) (Glomerella cingalata) | rank (antifungal effect, control percentage of mycelial colony diameter) (Rhizoctonia solani) | rank (antifungal effect, control percentage of mycelial colony diameter) (Sclerotinia minor) | rank (antifungal effect, control percentage of mycelial colony diameter) (Verticillium aibo-atrum) | rank (control effect, protective value from disease severity) (Sphaerotheca fuliginea)
CCc1ccc2nc(C)c(C)c(OC(C)=O)c2c1 [Compound No. 10] | A (protective value ≧80%) | A (control percentage ≧80%) | B (control percentage 50 to 79%) | C (control percentage <50%) | C (control percentage <50%) | B (control percentage 50 to 79%) | C (control percentage <50%) | C (control percentage <50%) | B (control percentage 50 to 79%) | C (control percentage <50%) | C (control percentage <50%) | C (control percentage <50%) | 
CCCCc1ccc2nc(C)c(C)c(O)c2c1 [Compound No. 28] | A (protective value ≧80%) | B (control percentage 50 to 79%) | C (control percentage <50%) | C (control percentage <50%) | C (control percentage <50%) | B (control percentage 50 to 79%) | C (control percentage <50%) | C (control percentage <50%) | B (control percentage 50 to 79%) | C (control percentage <50%) | C (control percentage <50%) | A (control percentage ≧80%) | 
CCCCc1ccc2nc(C)c(C)c(OC(C)=O)c2c1 [Compound No. 29] | A (protective value ≧80%) | A (control percentage ≧80%) | B (control percentage 50 to 79%) | C (control percentage <50%) | B (control percentage 50 to 79%) | B (control percentage 50 to 79%) | B (control percentage 50 to 79%) | B (control percentage 50 to 79%) | A (control percentage ≧80%) | C (control percentage <50%) | C (control percentage <50%) | A (control percentage ≧80%) | B (protective value 50 to 79%)
CCCCc1ccc2nc(C)c(C)c(OC(=O)C3CC3)c2c1 [compound 31] | A (protective value ≧80%) | A (control percentage ≧80%) | A (control percentage ≧80%) | A (control percentage ≧80%) | A (control percentage ≧80%) | A (control percentage ≧80%) | A (control percentage ≧80%) | A (control percentage ≧80%) | A (control percentage ≧80%) | C (control percentage <50%) | B (control percentage 50 to 79%) | A (control percentage ≧80%) | 
CC(=O)Oc1c(C)c(C)nc2c(C)cc(Br)cc12 [compound 195] | A (protective value ≧80%) |  |  |  |  |  |  |  |  |  |  |  | A (protective value ≧80%)
CC(=O)Oc1c(C)c(C)nc2ccc(Br)c(C)c12 [compound 197] | A (protective value ≧80%) |  |  |  |  |  |  |  |  |  |  |  | A (protective value ≧80%)
